{"source": "patent US8748598B2", "about": "“Analogs of 3-O-acetyl-11-keto-beta-boswellic acid” (Laila Nutraceuticals, priority 2004, dated 2014)", "key": {"[1]": {"tested_on": "B16", "experiment": "MTT cell proliferation assay, B16", "format": "cell-based, mouse", "conditions": "Mus musculus, B16; read-out: Inhibition of cell proliferation (IC50)", "protocol": "(§1) MTT [3-(4,5-dimethylthiazol-2-yl)-2,5-diphenyltetrazolium bromide] incorporation based cell proliferation assay was performed as described previously (Reference). The cytotoxic efficacy of some analogs was evaluated in different cell lines by MTT cell proliferation assay kit (Roche Applied Sciences, Germany). The assay was carried out according to the instruction provided by the vendor. Briefly, in brief, equal numbers of cells was plated in 96-well flat-bottomed plates in 100 μl of medium and were exposed to different analogs selected from 1 to 63 at various concentrations up to 10 μg/ml for a period of three days. Vehicle control culture wells received only a maximum of 0.5% DMSO. Thereafter, 0.5 mg/ml of MTT reagent was added to each well and the microplate was incubated further for 4 h at 37° C. in presence of 5% CO2. Finally, the cells were solubilized by adding solubilizing solution and allowed to incubate at 37° C. overnight. After complete solubilization of the formazan crystals the absorbance was read at 540 nm in a microplate reader (BioRad, USA). The results (mean OD±SD) obtained from quadruplicate wells were used in calculation to determine the inhibition of cell proliferation (50% of inhibitory concentration, IC50) of the test compounds."}, "[2]": {"tested_on": "MDA-MB-231", "experiment": "MTT cell proliferation assay, MDA-MB-231", "format": "cell-based, human", "conditions": "Homo sapiens, MDA-MB-231; Table 4", "method_in_brief": "(§2)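 Cells exposed three days to compounds at concentrations up to 10 μg/ml (≤0.5% DMSO), then 0.5 mg/ml MTT for 4 h at 37 °C. Solubilized formazan read at 540 nm; IC50 calculated from quadruplicate wells.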"}, "[3]": {"tested_on": "SKBR3", "experiment": "In vitro antitumor activity, SKBR3", "format": "cell-based", "conditions": "Homo sapiens, SK-BR-3, read-out: Inhibition of cell proliferation (IC50)", "protocol": "as §1, with “USA).” for “USA). The results (mean OD±SD) obtained from quadruplicate wells were used in calculation to determine the inhibition of cell proliferation (50% of inhibitory concentration, IC50) of the test compounds.”"}, "[4]": {"tested_on": "HT-29", "experiment": "In vitro antitumor activity, HT-29", "format": "cell-based", "conditions": "Homo sapiens, read-out: Inhibition of cell proliferation (IC50)", "protocol": "as §1, with “USA).” for “USA). The results (mean OD±SD) obtained from quadruplicate wells were used in calculation to determine the inhibition of cell proliferation (50% of inhibitory concentration, IC50) of the test compounds.”"}, "[5]": {"tested_on": "A549", "experiment": "MTT cell proliferation assay, A549", "format": "cell-based, human", "conditions": "Homo sapiens, A549; read-out: Inhibition of cell proliferation (IC50)", "protocol": "as §1"}, "[6]": {"tested_on": "DU145", "experiment": "In vitro antitumor activity, DU145", "format": "cell-based", "conditions": "Homo sapiens, DU-145, read-out: Inhibition of cell proliferation (IC50)", "protocol": "as §1, with “USA).” for “USA). The results (mean OD±SD) obtained from quadruplicate wells were used in calculation to determine the inhibition of cell proliferation (50% of inhibitory concentration, IC50) of the test compounds.”"}, "[7]": {"tested_on": "B16 murine melanoma cells", "experiment": "Cell cycle analysis by flow cytometry", "format": "cell-based", "conditions": "24 h", "protocol": "For flow cytometry, cells were harvested after the treatment period, washed with phosphate buffered saline (PBS), and adjusted the cell count at 2×10^6 cells per milliliter. The cells were fixed in 70% ethanol for 30 min at 4° C. Cells were then washed two times with PBS and stained with 0.5 μg/ml propidium iodide at 37° C. for 30 min and analyzed by flow cytometry. Data were acquired on a FACS Scan flow cytometer (Becton Dickinson) and analyzed by using the Cellquest software."}, "[8]": {"tested_on": "AKT pathway", "experiment": "AKT pathway western immunoblot in MDA-MB-231 cells", "format": "cell-based, human", "conditions": "MDA-MB-231, 10 μg/ml, 0-240 min", "protocol": "Equal number of MDA-MB-231 human breast tumor cells (ER-) was plated in 25 cm^2 cell culture flasks. The cells treated with either 0.5% DMSO as vehicle or 10 μg/ml of LI-51255 for 0, 5, 10, 20, 30, 60, 120 and 240 min. The cells were lysed in cell lysis buffer."}, "[9]": {"tested_on": "A375", "experiment": "MTT cell proliferation assay, A375", "format": "cell-based, human", "conditions": "Homo sapiens, A-375; A375; read-out: Inhibition of cell proliferation (IC50)", "protocol": "as §1"}, "[10]": {"tested_on": "MCF-7", "experiment": "MTT cell proliferation assay, MCF-7", "format": "cell-based, human", "conditions": "Homo sapiens, MCF7; Table 4", "method_in_brief": "as §2"}, "[11]": {"tested_on": "MDA-MB-231", "experiment": "MDA-MB-231 clone (colony) formation in vitro", "format": "cell-based, human", "conditions": "1.0, 1.5, 2.0, 2.5 μg/ml, 8 days", "protocol": "Inhibitory efficacy in clone formation of LI-51255 was tested by following the procedure described earlier with some modifications (Wu et al. 2005). Briefly, MDA-MB-231 cells were harvested and seeded into 6-well plates (100 cells/ml). The cells were allowed to grow for 4 days and thereafter, the cells were incubated with DMEM containing either 0.5% DMSO or 25 μg/ml AKBA or different concentrations (1.0, 1.5, 2.0, 2.5 μg/ml) of LI-51255 for further 8 days. Fresh medium containing test agents was replaced at every 24 h. Finally, the wells were washed three times with PBS and fixed in methanol for 15 min. The cells were stained with Giemsa stain and observed under microscope. The image of the stained wells were captured digitally (Kodak Image Station 4000MM, Carestream Health Inc., New Haven, Conn.) and number of colonies were counted and analyzed by using NIH Image J software."}, "[12]": {"tested_on": "Human umbilical vein endothelial cells (HUVEC)", "experiment": "In vitro capillary-like tube formation assay", "format": "cell-based", "conditions": "HUVEC on Cultrex, 1, 2.5 and 5 μg/ml, 16 h", "protocol": "In vitro capillary formation assay was performed with Human umbilical vein endothelial cells (HUVEC), cultured on 10 mg/ml basement membrane extract (BME—Cultrex®, R&D Systems, USA) bed. The protocol of in vitro endothelial tube formation assay was the same as described earlier with some modifications (Reference). Briefly, four hundred microliters of Cultrex was coated at 4° C. in each well of 24-well culture plate and allowed to gel at 37° C. for 1 h. HUVECs were plated at a density of 7.5×10^4 cells per well with 400 μl of DMEM supplemented with 10% fetal bovine serum and 4.5 g/l D-glucose. The cells were then treated with either 0.5% DMSO or different concentrations of LI-51255 for 16 hours. Pictures were taken under a Nikon Eclipse TS 100 microscope equipped with a Nikon Coolpix camera (FIG. 1B)."}, "[13]": {"tested_on": "A2058", "experiment": "In vitro antitumor activity, A2058", "format": "cell-based", "conditions": "Homo sapiens, read-out: Inhibition of cell proliferation (IC50)", "protocol": "as §1, with “USA).” for “USA). The results (mean OD±SD) obtained from quadruplicate wells were used in calculation to determine the inhibition of cell proliferation (50% of inhibitory concentration, IC50) of the test compounds.”"}}, "data": [{"molecule": "CC(=O)O[C@@H]1CC[C@@]2(C)C(CC[C@]3(C)C2C(=O)C=C2C4[C@@H](C)[C@H](C)CC[C@]4(C)CC[C@]23C)[C@@]1(C)C(=O)NCCN", "note": "(stereo partly shown) [Analog 21]", "values": [{"measurement": "IC50", "setting": "[1]", "result": 4.35, "unit": "µg/mL"}, {"measurement": "IC50", "setting": "[2]", "result": 3.45, "unit": "µg/mL"}, {"measurement": "IC50", "setting": "[3]", "result": 5.3, "unit": "µg/mL"}, {"measurement": "IC50", "setting": "[4]", "result": 8.87, "unit": "µg/mL"}, {"measurement": "IC50", "setting": "[5]", "result": 6.83, "unit": "µg/mL"}, {"measurement": "IC50", "setting": "[6]", "result": 4.24, "unit": "µg/mL"}, {"measurement": "cell cycle progression", "setting": "[7]", "result": "interrupts cell cycle progression at sub G1 phase"}, {"measurement": "phosphorylated AKT (ser 473) protein expression", "setting": "[8]", "result": "down regulating AKT phosphorylation"}, {"measurement": "IC50", "setting": "[9]", "result": 3.53, "unit": "µg/mL"}, {"measurement": "IC50", "setting": "[10]", "result": 13, "unit": "µg/mL"}, {"measurement": "MDA-MB-231 colony formation", "setting": "[11]", "result": "potent inhibition of clone formation"}, {"measurement": "capillary-like tube formation", "setting": "[12]", "result": "dose dependent inhibition"}, {"measurement": "IC50", "setting": "[13]", "result": 3.59, "unit": "µg/mL"}]}]}
